SMILES strings stand for the structures.

This assay deals with AMPK. Put plainly: AMPK activation assay (enzyme-linked immunosorbent assay). Type of assay: cell-based. Put shortly: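 Activation by each compound is measured using a conventional commercial immunoassay kit.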
Compound `COc1ccc(C(=O)C2CCN(C(=O)c3ccc(C(=O)NC4CCN(Cc5ccc([N+](=O)[O-])cc5)CC4)cn3)CC2)cc1` [Compound 373, 6-(4-(4-methoxybenzoyl)piperidine-1-carbonyl)-N-(1-(4-nitrobenzyl)piperidin-4-yl)nicotinamide] yielded an EC50 of less than 500 nM.
Then `COc1ccc(-c2ccc(Nc3ccc(C(=O)NC4CCN(Cc5ccccc5)CC4)nc3)cc2)cc1` [Compound 120, N-(1-benzylpiperidin-4-yl)-5-(4′-methoxybiphenyl-4-ylamino)picolinamide], with greater than 10000 nM; and `N#Cc1ccc(OC2CCN(C(=O)c3ccc(C(=O)N[C@H]4CC[C@@H](Oc5ccc(C(F)(F)F)cc5)CC4)nc3)CC2)cc1` [Compound 193, 5-(4-(4-cyanophenoxy)piperidine-1-carbonyl)-N-((cis)-4-(4-(trifluoromethyl)phenoxy)cyclohexyl) picolinamide], with less than 500 nM; and `CS(=O)(=O)c1ccc(OC2CCN(C(=O)c3ccc(C(=O)NC4CCC(Oc5ccc(C#N)cc5)CC4)cn3)CC2)cc1` (stereo not drawn) [Compound 398, N-(4-(4-cyanophenoxy)cyclohexyl)-6-(4-(4-(methylsulfonyl)phenoxy)piperidine-1-carbonyl)nicotinamide], with less than 500 nM.
The compound `O=C(NC1CCN(Cc2cc(F)cc(F)c2)CC1)c1ccc(C(=O)N2CCC(C(=O)c3ccc(F)c(F)c3)CC2)cn1` [Compound 298, 5-(4-(3,4-difluorobenzoyl)piperidine-1-carbonyl)-N-(1-(3,5-difluorobenzyl)piperidin-4-yl)picolinamide] yielded an EC50 of less than 500 nM.
Take `CC(=O)c1ccc(OC2CCN(C(=O)c3ccc(C(=O)Nc4ccc(Oc5ccc(F)cc5)nc4)nc3)CC2)cc1` [Compound 359, 5-(4-(4-acetylphenoxy)piperidine-1-carbonyl)-N-(6-(4-fluorophenoxy)pyridin-3-yl)picolinamide]: the EC50 was less than 500 nM.
Then `O=C(Nc1cccc(Oc2ccccc2)c1)c1ccc(C(=O)N2CCN(Cc3ccc(F)cc3)CC2)cn1` [Compound 21, 5-(4-(4-fluorobenzyl)piperazine-1-carbonyl)-N-(3-phenoxyphenyl)picolinamide], with less than 500 nM; and `O=C(NC1CCN(Cc2cc(F)cc(F)c2)CC1)c1ccc(C(=O)N2CCC(C(=O)c3ccc(F)cc3)CC2)cn1` [Compound 288, N-(1-(3,5-difluorobenzyl)piperidin-4-yl)-5-(4-(4-fluorobenzoyl)piperidine-1-carbonyl)picolinamide], with less than 500 nM.
Then `N#Cc1ccc(CN2CCC(NC(=O)c3ccc(C(=O)N4CCC(Oc5ccc(S(=O)(=O)C(F)(F)F)cc5)CC4)cn3)CC2)cc1` [Compound 415, N-(1-(4-cyanobenzyl)piperidin-4-yl)-5-(4-(4-(trifluoromethylsulfonyl)phenoxy)piperidine-1-carbonyl)picolinamide], with less than 500 nM; and `COc1ccc(CN2CCC(NC(=O)c3ccc(C(=O)N4CCC(Oc5ccc(C#N)cc5)CC4)cn3)CC2)cc1` [Compound 162, 5-(4-(4-cyanophenoxy)piperidine-1-carbonyl)-N-(1-(4-methoxybenzyl)piperidin-4-yl)picolinamide], with less than 500 nM.
`COc1ccc(C(=O)C2CCN(C(=O)c3ccc(C(=O)N[C@H]4CC[C@@H](Oc5ccc(C#N)cc5)CC4)nc3)CC2)cc1` [Compound 171, N-((cis)-4-(4-cyanophenoxy)cyclohexyl)-5-(4-(4-methoxybenzoyl)piperidine-1-carbonyl)picolinamide]: the concentration for a half-maximal effect (EC50) is less than 500 nM.
`O=C(Nc1ccc(Oc2ccc(F)cc2)nc1)c1ccc(C(=O)N2CCN(Cc3ccc(F)cc3)CC2)cn1` [Compound 65, 5-(4-(4-fluorobenzyl)piperazine-1-carbonyl)-N-(6-(4-fluorophenoxy)pyridin-3-yl)picolinamide] came in with an EC50 of less than 500 nM.
On to `COc1ccc(C(=O)C2CCN(C(=O)c3ccc(C(=O)N[C@@H]4CCN(Cc5cc(C)on5)C[C@@H]4F)cn3)CC2)cc1` [Compound 426, N-((3S,4R)-3-fluoro-1-((5-methylisoxazol-3-yl)methyl)piperidin-4-yl)-6-(4-(4-methoxybenzoyl)piperidine-1-carbonyl)nicotinamide], for which the EC50 was less than 500 nM.
In turn, `CS(=O)(=O)c1ccc(OC2CCN(C(=O)c3ccc(C(=O)NC4CCN(Cc5ccc(C#N)cc5)CC4)nn3)CC2)cc1` [Compound 399, N-(1-(4-cyanobenzyl)piperidin-4-yl)-6-(4-(4-(methylsulfonyl)phenoxy)piperidine-1-carbonyl)pyridazine-3-carboxamide] registered an EC50 of less than 500 nM.
For the compound `N#Cc1ccc(CN2CCC(NC(=O)c3ccc(C(=O)N4CCC(Oc5ccc([N+](=O)[O-])cc5)CC4)nc3)CC2)cc1` [Compound 363, N-(1-(4-cyanobenzyl)piperidin-4-yl)-6-(4-(4-nitrophenoxy)piperidine-1-carbonyl)nicotinamide], the EC50 is less than 500 nM.
For the compound `O=C(Nc1ccc(Br)cc1)c1ccc(C(=O)N2CCN(Cc3ccc(F)cc3)CC2)cn1` [Compound 28, N-(4-bromophenyl)-5-(4-(4-fluorobenzyl)piperazine-1-carbonyl)picolinamide], the EC50 was 500 to 1000 nM.
For `N#Cc1ccc(O[C@H]2CC[C@@H](NC(=O)c3ccc(C(=O)N4CCN(Cc5ccc(F)cc5)CC4)cn3)CC2)cc1` [Compound 150, N-(cis-4-(4-cyanophenoxy)cyclohexyl)-5-(4-(4-fluorobenzyl)piperazine-1-carbonyl)picolinamide], the EC50 is less than 500 nM.
`N#Cc1ccc(O[C@H]2CC[C@@H](NC(=O)c3ccc(C(=O)N4CCC(Oc5cccc(NC(=O)C6CC6)c5)CC4)nc3)CC2)cc1` [Compound 434, N-((cis)-4-(4-cyanophenoxy)cyclohexyl)-6-(4-(3-(cyclopropanecarboxamido)phenoxy)piperidine-1-carbonyl)nicotinamide] showed a half-maximal effective concentration (EC50) of less than 500 nM.
Compound `N#Cc1ccc(CN2CCC(NC(=O)c3ccc(C(=O)N4CCN(S(=O)(=O)c5ccc(F)cc5)CC4)cn3)CC2)cc1` [Compound 78, N-(1-(4-cyanobenzyl)piperidin-4-yl)-5-(4-(4-fluorophenylsulfonyl)piperazine-1-carbonyl)picolinamide] yielded an EC50 of less than 500 nM.
`COc1ccc(C(=O)C2CCN(C(=O)c3ccc(C(=O)N[C@H]4CCN(Cc5ccc(C#N)cc5)C[C@@H]4F)cn3)CC2)cc1` [Compound 453, N-((3S,4S)-1-(4-cyanobenzyl)-3-fluoropiperidin-4-yl)-6-(4-(4-methoxybenzoyl)piperidine-1-carbonyl)nicotinamide] showed an EC50 of less than 500 nM.
As for `CN(C)C(=O)c1ccc(OC2CCN(C(=O)c3ccc(C(=O)Nc4ccc(Oc5ccc(F)cc5)nc4)nc3)CC2)cc1` [Compound 360, 5-(4-(4-(dimethylcarbamoyl)phenoxy)piperidine-1-carbonyl)-N-(6-(4-fluorophenoxy)pyridin-3-yl)picolinamide], the EC50 was less than 500 nM.
`O=C(Nc1ccc(Oc2ccc(F)cc2)nc1)c1ccc(C(=O)N2CCC(Oc3ccc(F)cc3F)CC2)nc1` [Compound 343, 6-(4-(2,4-difluorophenoxy)piperidine-1-carbonyl)-N-(6-(4-fluorophenoxy)pyridin-3-yl)nicotinamide] returned an EC50 of less than 500 nM.
Consider `CS(=O)(=O)Nc1ccc(CN2CCC(NC(=O)c3ccc(C(=O)N4CCC(Oc5ccc(C#N)cc5)CC4)nc3)CC2)cc1` [Compound 217, 6-(4-(4-cyanophenoxy)piperidine-1-carbonyl)-N-(1-(4-(methylsulfonamido)benzyl)piperidin-4-yl)nicotinamide], for which the EC50 is greater than 10000 nM.
As to `COc1ccc(C(=O)C2CCN(C(=O)c3ccc(C(=O)N[C@@H]4CCN(Cc5ccc(C#N)c(F)c5)C[C@H]4F)cn3)CC2)cc1` (relative stereo) [Compound 354, N-((trans)-1-(4-cyano-3-fluorobenzyl)-3-fluoropiperidin-4-yl)-6-(4-(4-methoxybenzoyl)piperidine-1-carbonyl)nicotinamide], the EC50 was less than 500 nM.
`CS(=O)(=O)c1ccc(OC2CCN(C(=O)c3ccc(C(=O)NC4CCN(Cc5ccc(C#N)cc5)CC4)nc3)CC2)cc1` [Compound 227, N-(1-(4-cyanobenzyl)piperidin-4-yl)-5-(4-(4-(methylsulfonyl)phenoxy)piperidine-1-carbonyl)picolinamide] registered an EC50 of less than 500 nM.
Regarding `N#Cc1ccc(CN2CCC(NC(=O)c3ccc(C(=O)N4CCC(Oc5cccc(NC(=O)C6CC6)c5)CC4)nc3)CC2)cc1` [Compound 431, N-(1-(4-cyanobenzyl)piperidin-4-yl)-6-(4-(3-(cyclopropanecarboxamido)phenoxy)piperidine-1-carbonyl)nicotinamide], the EC50 lay within 500 to 1000 nM.
Turning to `COc1ccc(CN2CCC(NC(=O)c3ccc(C(=O)N4CCC(C(=O)c5ccc(OC)cc5)CC4)nc3)CC2)cc1` [Compound 318, 6-(4-(4-methoxybenzoyl)piperidine-1-carbonyl)-N-(1-(4-methoxybenzyl)piperidin-4-yl) nicotinamide], the EC50 was less than 500 nM.
`COc1ccc(CN2CCC(NC(=O)c3ccc(C(=O)N4CCC(Oc5ccc(S(F)(F)(F)(F)F)cc5)CC4)nc3)CC2)cc1` [Compound 495, N-(1-(4-methoxybenzyl)piperidin-4-yl)-6-(4-(4-(pentafluorosulfanyl)phenoxy)piperidine-1-carbonyl)nicotinamide] displayed an EC50 of less than 500 nM.
Then `COc1ccc(CN2CCC(NC(=O)c3ccc(C(=O)N4CCC(C(=O)c5ccc(F)cc5)CC4)cn3)CC2)cc1` [Compound 160, 5-(4-(4-fluorobenzoyl)piperidine-1-carbonyl)-N-(1-(4-methoxybenzyl)piperidin-4-yl)picolinamide], with less than 500 nM; and `COc1ccc(C(=O)C2CCN(C(=O)c3ccc(C(=O)NC4CCN(Cc5ccc(NC(=O)CCOCCOCCOCCNC(=O)CCCC[C@@H]6SC[C@@H]7NC(=O)N[C@@H]76)cc5)CC4)nc3)CC2)cc1` [Compound 403, 5-(4-(4-methoxybenzoyl)piperidine-1-carbonyl)-N-(1-(4-(14-oxo-18-((3aS,4S,6aR)-2-oxohexahydro-1H-thieno[3,4-d]imidazol-4-yl)-4,7,10-trioxa-13-azaoctadecanamido)benzyl)piperidin-4-yl)picolinamide], with greater than 10000 nM.

The values above are taken from US20150087673A1, “METHODS FOR USING AND BIOMARKERS FOR AMPK-ACTIVATING COMPOUNDS” (RIGEL PHARMACEUTICALS, INC., priority 2013, published 2015).
